US5481013A, “Carboxylic acid derivatives” (Ciba-Geigy Corporation, priority 1992, dated 1996)

What was measured:
Format in all cases: in vivo
Aphis craccivora = experiment: Activity against Aphis craccivora; conditions: 400 ppm spray on pea seedlings, 20° C., evaluated after 3 and 6 days, read-out: percentage reduction in population (% activity)
Procedure: Pea seedlings are infected with Aphis craccivora, subsequently sprayed with a spray mixture comprising 400 ppm of the active ingredient, and incubated at 20° C. The test is evaluated after 3 and 6 days. The percentage reduction in population (% activity) is determined by comparing the number of dead aphids on the treated plants with those on the untreated plants.

[1] = tested on: Panonychus ulmi (OP- and carb.- resistant); experiment: Activity against Panonychus ulmi (OP- and carb.- resistant); conditions: 336 h, 400 ppm spray on apple seedlings, evaluated after 14 days, read-out: percentage reduction in population (% activity)
Procedure: Apple seedlings are populated with adult females of Panonychus ulmi. After seven days, the infested plants are sprayed to drip point with an aqueous emulsion comprising 400 ppm of the test compound and grown in the greenhouse. The test is evaluated after 14 days. The percentage reduction in population (% activity) is determined by comparing the number of dead spider mites on the treated plants with those on the untreated plants. […] An activity of over 80% is shown, in particular, by compound Nos. 1.01, 2.01, 2.07, 2.08, 2.10, 2.12 to 2.16, 2.22, 2.23, 2.26, 3.01, 4.01, 4.02, 4.06, 5.01 to 5.03, 5.05, 5.06, 5.08, 5.10, 5.11, 5.15, 5.16 and 5.20 to 5.25.

Nephotettix cincticeps = experiment: Activity against Nephotettix cincticeps (spray on rice plants); conditions: 504 h, 400 ppm spray on rice plants, larvae in stages 2 and 3, evaluated 21 days later, read-out: percentage reduction in population (% activity)
Procedure: Rice plants are treated with a spray mixture prepared with an aqueous emulsion and comprising 400 ppm of the active ingredient. After the spray coating has dried on, the rice plants are populated with leaf hopper larvae in stages 2 and 3. The test is evaluated 21 days later. The percentage reduction in population (% activity) is determined by comparing the number of surviving leaf hoppers on the treated plants with those on the untreated plants.

[2] = tested on: Crocidolomia binotalis caterpillars; experiment: Activity against Crocidolomia binotalis caterpillars; conditions: Brassica oleracea, 72 h; 400 ppm spray on young cabbage plants, third larval stage, evaluated after 3 days; read-out: percentage reduction in population or in feeding damage (% activity)
Procedure: Young cabbage plants are sprayed with a spray mixture prepared with an aqueous emulsion and comprising 400 ppm of the active ingredient. After the spray coating has dried on, the cabbage plants are infested with 10 Crocidolomia binotalis in the third larval stage and placed into a plastic container. The test is evaluated after 3 days. The percentage reduction in population, or the percentage reduction in feeding damage (% activity), is determined by comparing the number of dead caterpillars and the feeding damage on the treated plants with those on the untreated plants.

adult Anthonomus grandis = experiment: Activity against adult Anthonomus grandis; conditions: 72 h, 400 ppm spray on young cotton plants, adults, evaluated after 3 days, read-out: percentage reduction in population or in feeding damage (% activity)
Procedure: Young cotton plants are sprayed with a spray mixture prepared with an aqueous emulsion and comprising 400 ppm of the active ingredient. After the spray coating has dried on, the cotton plants are populated with 10 adult Anthonomus grandis and placed into a plastic container. The test is evaluated after 3 days. The percentage reduction in population, or the percentage reduction in feeding damage (% activity), is determined by comparing the number of dead beetles and the feeding damage on the treated plants with those on the untreated plants.

Measured: activity at 400 ppm

O=C(CCCCCCCCCC=C(F)F)OCCOc1ccc(OCc2ccccc2)cc1 [Compound 5.05]
> 80%: Aphis craccivora | [1] | Nephotettix cincticeps | [2] | adult Anthonomus grandis
